The text below walks through data of ChEMBL document CHEMBL3867473, “The comparison of neuroprotective effects of isoliquiritigenin and its Phase I metabolites against glutamate-induced HT22 cell death” (2016).

Calls of active or inactive are those of the source. No cut-off for these calls is given here.

The subject of experiment [1] is HT-22. Kind of experiment: Neuroprotective activity against glutamate-induced oxidative stress in mouse HT22 cells assessed as ROS level at 5 uM pretreated for 12 hrs prior to glutamate-challenge measured after 12 hrs (reference value: 241.63 +/- 7.98%). Format: functional.
Experiment [2] deals with HT-22. Kind of experiment: Neuroprotective activity in mouse HT22 cells assessed as decrease of glutamate-induced ROS production at 5 uM pretreated for 12 hrs prior to glutamate-challenge measured after 12 hrs by CM-H2CDFDA staining-based flow cytometry (reference value: 3.95 +/- 0.01). Format: functional. Background: Flow cytometry measures light scatter and fluorescence of single cells or particles in a stream.

Experiment [3] relates to HT-22. Kind of experiment: Inhibition of glutamate-induced increase in ERK phosphorylation in mouse HT22 cells at 5 uM pretreated for 12 hrs followed by glutamate-challenge measured after 12 hrs by Western blotting assay (reference value: 3.01 +/- 0.3). Format: cell-based. A general note: In western blotting, separated proteins are transferred to a membrane and probed.
In experiment [4] the target is MAP kinase p38 (Mus musculus) (UniProt P47811+O08911+Q9WUI1+Q9Z1B7). Briefly: Inhibition of glutamate-induced increase in p38 phosphorylation in mouse HT22 cells at 5 uM pretreated for 12 hrs followed by glutamate-challenge measured after 12 hrs by Western blotting assay (reference value: 2.46 +/- 0.96). The conditions noted are these: HT-22. Format: cell-based.
The test system of experiment [5] is HT-22. Kind of experiment: Inhibition of glutamate-induced increase in JNK phosphorylation in mouse HT22 cells at 5 uM pretreated for 12 hrs followed by glutamate-challenge measured after 12 hrs by Western blotting assay (reference value: 1.84 +/- 0.11). Format: cell-based.
In experiment [6] the test system is HT-22. Briefly: Neuroprotective activity in mouse HT22 cells assessed as decrease in glutamate-induced reduction of full-length Bid level at 5 uM pretreated for 12 hrs prior to glutamate-challenge measured after 12 hrs by Western blotting assay. Format: functional, cell-based.
The nature of experiment [7]: Neuroprotective activity against glutamate-induced cell death in mouse HT22 cells assessed as cell viability at 10 uM pretreated for 12 hrs prior to glutamate-challenge measured after 12 hrs by MTT assay (reference value: 43.35 +/- 1.48%). Format: functional. Particulars: HT-22, read-out: Activity.
Experiment [8] relates to HT-22. Briefly: Neuroprotective activity in mouse HT22 cells assessed as decrease in glutamate-induced reduction of full-length Bid level at 5 uM pretreated for 12 hrs prior to glutamate-challenge measured after 12 hrs by Western blotting assay (reference value: 0.9 +/- 0.05). Format: functional.
Experiment [9] has as its system HT-22. Briefly: Neuroprotective activity in mouse HT22 cells assessed as decrease of glutamate-induced ROS production at 10 uM pretreated for 12 hrs prior to glutamate-challenge measured after 12 hrs by CM-H2CDFDA staining-based flow cytometry (reference value: 3.95 +/- 0.01). Format: functional.
Experiment [10] has as its system HT-22. Briefly: Neuroprotective activity against glutamate-induced oxidative stress in mouse HT22 cells assessed as ROS level at 10 uM pretreated for 12 hrs prior to glutamate-challenge measured after 12 hrs (reference value: 241.63 +/- 7.98%). Format: functional.

As for `O=C(/C=C/c1ccc(O)cc1)c1cc(O)c(O)cc1O`, in [1], the Activity is recorded as 137.94%. Further, the “fold change (FC)” value was determined as 2.39 in [2], 1.64 in [3], 1.21 in [4] and 1.08 in experiment [5]. In [6], the result was Active. In addition, in experiment [7], the viability at 10 µM stood at 83.5%.

For the molecule `O=C(/C=C/c1ccc(O)c(O)c1)c1ccc(O)cc1O` [BUTEIN], the Activity in experiment [1] is listed as 59.79%. Moreover, the “fold change (FC)” value was found to be 0.69 in experiment [2]; 1.49 in experiment [3]; 0.75 in [4]; 0.73 in experiment [5]; 1.22 in experiment [8]. In addition, the viability at 10 µM in experiment [7] stood at 92.5%.

For `O=C(/C=C/c1ccc(O)cc1)c1ccc(O)cc1O` [ISOLIQUIRITIGENIN], the Activity in [1] was 96.19%. The “fold change (FC)” value in experiment [2] is 1.44; in experiment [3], 0.8; in experiment [4] it was 1.03; in experiment [5], 1; in experiment [8], 0.94. In addition, the viability at 10 µM in experiment [7] is 78.9%.

Turning to `O=c1c(O)c(-c2ccc(O)c(O)c2)oc2cc(O)cc(O)c12` [QUERCETIN], the fold change (FC) in experiment [3] came out at 0.77; in experiment [9], 0.79; in experiment [8], 1.16. Also, the Activity in [10] is given as 53.84%. Besides, in [7], the viability at 10 µM was determined as 93.7%.

For the molecule `O=C1/C(=C/c2ccc(O)c(O)c2)Oc2cc(O)ccc21` [SULFURETIN], the Activity in experiment [1] is recorded as 102.25%. The “fold change (FC)” value in [2] worked out at 1.82; in [3], 2.02; in [4], 1.09; in experiment [5], 0.72. Also, the result in experiment [6] was Active. In addition, the viability at 10 µM in experiment [7] turned out to be 93.7%.
